Test results from ChEMBL document CHEMBL4507273 (2021).

Tests used:
[1] = target: Dual specificity protein kinase CLK2 (Homo sapiens) (UniProt P49760); conditions: Compound concentration 1000.0 nM
[2] = target: Casein kinase II subunit alpha' (Homo sapiens) (UniProt P19784); conditions: Compound concentration 1000.0 nM
[3] = target: T1, Alpha-1A adrenergic receptor (Homo sapiens, UniProt P35348); assay: GPCRScan assay: inhibition of Alpha1A; parameters: radioligand conc. used [nm] 0.2 - 1.0, parental cells stable HEK
T1 sequence (P35348 whole entry): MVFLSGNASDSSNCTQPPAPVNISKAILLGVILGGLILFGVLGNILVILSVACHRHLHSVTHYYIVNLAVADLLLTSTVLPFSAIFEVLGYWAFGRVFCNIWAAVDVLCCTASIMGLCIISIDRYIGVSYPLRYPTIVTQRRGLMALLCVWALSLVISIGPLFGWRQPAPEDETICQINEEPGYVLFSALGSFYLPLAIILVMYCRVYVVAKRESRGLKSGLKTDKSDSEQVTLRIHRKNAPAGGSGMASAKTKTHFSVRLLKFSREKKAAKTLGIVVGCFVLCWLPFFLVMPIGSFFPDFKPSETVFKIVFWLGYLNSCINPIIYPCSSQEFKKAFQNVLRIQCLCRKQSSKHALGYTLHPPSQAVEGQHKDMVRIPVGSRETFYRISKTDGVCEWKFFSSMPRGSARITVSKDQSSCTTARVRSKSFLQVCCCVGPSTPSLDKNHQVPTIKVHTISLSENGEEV

[4] = test system: Tyrosine-protein kinase ABL1 (Homo sapiens), P00519 [F317I]; conditions: Compound concentration 1000.0 nM
[5] = target: Macrophage colony-stimulating factor 1 receptor (Homo sapiens) (UniProt P07333); conditions: Compound concentration 1000.0 nM
[6] = target: Ephrin type-A receptor 1 (Homo sapiens) (UniProt P21709); conditions: Compound concentration 1000.0 nM
Chain of Ephrin type-A receptor 1 (Homo sapiens) (P21709 whole entry): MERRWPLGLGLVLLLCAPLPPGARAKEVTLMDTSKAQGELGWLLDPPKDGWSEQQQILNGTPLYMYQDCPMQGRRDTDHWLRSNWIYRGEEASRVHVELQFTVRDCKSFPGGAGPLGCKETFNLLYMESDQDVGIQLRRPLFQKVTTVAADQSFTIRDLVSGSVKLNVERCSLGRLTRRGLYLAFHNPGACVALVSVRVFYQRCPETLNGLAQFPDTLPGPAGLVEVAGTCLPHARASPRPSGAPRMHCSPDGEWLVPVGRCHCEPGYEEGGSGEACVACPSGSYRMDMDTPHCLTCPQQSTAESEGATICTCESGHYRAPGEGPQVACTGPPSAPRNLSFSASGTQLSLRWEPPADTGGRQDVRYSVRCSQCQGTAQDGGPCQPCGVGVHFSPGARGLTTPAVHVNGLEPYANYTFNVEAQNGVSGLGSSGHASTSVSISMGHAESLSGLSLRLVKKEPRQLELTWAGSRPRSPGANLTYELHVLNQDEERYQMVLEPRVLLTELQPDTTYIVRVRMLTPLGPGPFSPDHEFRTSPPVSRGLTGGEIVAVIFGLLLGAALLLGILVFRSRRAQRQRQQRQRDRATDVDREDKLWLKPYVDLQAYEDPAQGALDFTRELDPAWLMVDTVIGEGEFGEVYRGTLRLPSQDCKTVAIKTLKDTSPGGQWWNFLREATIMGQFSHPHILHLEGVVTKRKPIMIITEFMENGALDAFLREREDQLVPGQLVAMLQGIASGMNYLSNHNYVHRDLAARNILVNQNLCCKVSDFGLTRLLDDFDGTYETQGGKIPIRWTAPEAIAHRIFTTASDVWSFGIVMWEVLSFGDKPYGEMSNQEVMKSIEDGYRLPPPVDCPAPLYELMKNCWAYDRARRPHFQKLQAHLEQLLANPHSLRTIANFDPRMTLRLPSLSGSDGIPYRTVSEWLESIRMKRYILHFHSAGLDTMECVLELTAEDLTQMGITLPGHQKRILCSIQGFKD

[7] = target: Myotonin-protein kinase (Homo sapiens) (UniProt Q09013); conditions: Compound concentration 1000.0 nM
[8] = target: Microtubule-associated serine/threonine-protein kinase 1 (Homo sapiens) (UniProt Q9Y2H9); conditions: Compound concentration 1000.0 nM
Histamine H2 receptor = Histamine H2 receptor (Homo sapiens, UniProt P25021); assay: GPCRScan assay: inhibition of H2; parameters: radioligand conc. used [nm] 0.02 – 0.05, parental cells Stable HEK
Chain of Histamine H2 receptor (P25021 whole entry): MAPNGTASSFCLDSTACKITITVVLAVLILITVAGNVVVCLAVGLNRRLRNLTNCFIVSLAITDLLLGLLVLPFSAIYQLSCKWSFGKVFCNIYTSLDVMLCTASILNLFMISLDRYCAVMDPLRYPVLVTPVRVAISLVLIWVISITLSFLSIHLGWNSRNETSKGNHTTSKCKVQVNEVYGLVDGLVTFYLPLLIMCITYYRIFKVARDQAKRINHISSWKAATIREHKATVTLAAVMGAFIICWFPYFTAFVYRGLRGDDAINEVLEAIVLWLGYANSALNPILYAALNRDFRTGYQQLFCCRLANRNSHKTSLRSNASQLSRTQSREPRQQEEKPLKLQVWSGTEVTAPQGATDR

[9] = target: Eukaryotic translation initiation factor 2-alpha kinase 1 (Homo sapiens) (UniProt Q9BQI3); conditions: Compound concentration 1000.0 nM
[10] = test system: Mast/stem cell growth factor receptor Kit (Homo sapiens), P10721 [V559D,V654A]; conditions: Compound concentration 1000.0 nM
[11] = target: Serine/threonine-protein kinase STK11 (Homo sapiens) (UniProt Q15831); conditions: Compound concentration 1000.0 nM
[12] = target: Ephrin type-A receptor 6 (Homo sapiens) (UniProt Q9UF33); conditions: Compound concentration 1000.0 nM
[13] = target: Myosin light chain kinase family member 4 (Homo sapiens) (UniProt Q86YV6); conditions: Compound concentration 1000.0 nM
[14] = target: Serine/threonine-protein kinase Nek2 (Homo sapiens) (UniProt P51955); conditions: Compound concentration 1000.0 nM
[15] = target: Serine/threonine-protein kinase ULK1 (Homo sapiens) (UniProt O75385); conditions: Compound concentration 1000.0 nM
[16] = target: LIM domain kinase 1 (Homo sapiens) (UniProt P53667); conditions: Compound concentration 1000.0 nM
[17] = target: Serine/threonine-protein kinase 17A (Homo sapiens) (UniProt Q9UEE5); conditions: Compound concentration 1000.0 nM
Chain of Serine/threonine-protein kinase 17A (Homo sapiens) (Q9UEE5 whole entry): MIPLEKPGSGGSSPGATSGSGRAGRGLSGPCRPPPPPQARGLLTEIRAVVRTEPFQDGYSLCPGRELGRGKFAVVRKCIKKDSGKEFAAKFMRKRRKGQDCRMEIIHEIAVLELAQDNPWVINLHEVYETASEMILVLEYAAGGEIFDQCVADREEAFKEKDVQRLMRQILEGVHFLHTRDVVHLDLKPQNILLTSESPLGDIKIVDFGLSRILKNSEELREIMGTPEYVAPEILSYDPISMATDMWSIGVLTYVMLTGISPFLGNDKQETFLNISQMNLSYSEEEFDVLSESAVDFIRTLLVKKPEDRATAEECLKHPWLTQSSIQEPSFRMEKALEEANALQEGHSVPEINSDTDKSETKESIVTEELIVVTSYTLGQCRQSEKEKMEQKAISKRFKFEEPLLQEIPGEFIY

[18] = target: Serine/threonine-protein kinase PAK 4 (Homo sapiens) (UniProt O96013); conditions: Compound concentration 1000.0 nM
[19] = target: Tyrosine-protein kinase Fyn (Homo sapiens) (UniProt P06241); conditions: Compound concentration 1000.0 nM
[20] = target: Tyrosine-protein kinase receptor Tie-1 (Homo sapiens) (UniProt P35590); conditions: Compound concentration 1000.0 nM
[21] = target: Muscarinic acetylcholine receptor M2 (Homo sapiens, UniProt P08172); assay: GPCRScan assay: inhibition of M2; parameters: radioligand conc. used [nm] 0.2 – 1.0, parental cells stable CHO
[22] = target: T2, 5-hydroxytryptamine receptor 1D (Homo sapiens, UniProt P28221); assay: GPCRScan assay: inhibition of 5-HT1D; parameters: radioligand conc. used [nm] 1.0 – 2.0, parental cells HEKT
T2 sequence (P28221 whole entry): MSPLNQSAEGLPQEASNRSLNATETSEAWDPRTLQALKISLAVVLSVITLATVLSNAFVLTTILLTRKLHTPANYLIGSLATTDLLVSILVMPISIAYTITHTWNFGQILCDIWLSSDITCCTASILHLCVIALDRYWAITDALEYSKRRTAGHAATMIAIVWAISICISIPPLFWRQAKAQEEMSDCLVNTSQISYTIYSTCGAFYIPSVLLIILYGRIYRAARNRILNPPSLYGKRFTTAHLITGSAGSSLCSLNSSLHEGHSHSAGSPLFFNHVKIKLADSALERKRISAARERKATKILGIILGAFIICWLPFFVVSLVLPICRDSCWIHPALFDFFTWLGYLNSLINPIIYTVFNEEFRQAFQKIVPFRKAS

[23] = target: T2, 5-hydroxytryptamine receptor 1D; conditions: Compound concentration 10.0 uM
[24] = target: Phosphatidylinositol 4,5-bisphosphate 3-kinase catalytic subunit delta isoform (Homo sapiens) (UniProt O00329); conditions: Compound concentration 1000.0 nM
[25] = target: Maternal embryonic leucine zipper kinase (Homo sapiens) (UniProt Q14680); conditions: Compound concentration 1000.0 nM
[26] = target: Muscarinic acetylcholine receptor M2 (Homo sapiens) (UniProt P08172); conditions: Compound concentration 10.0 uM
[27] = target: Serine/threonine-protein kinase Chk2 (Homo sapiens) (UniProt O96017); conditions: Compound concentration 1000.0 nM
[28] = target: Ribosomal protein S6 kinase alpha-2 (Homo sapiens) (UniProt Q15349); conditions: Compound concentration 1000.0 nM
Chain of Ribosomal protein S6 kinase alpha-2 (Homo sapiens) (Q15349 whole entry): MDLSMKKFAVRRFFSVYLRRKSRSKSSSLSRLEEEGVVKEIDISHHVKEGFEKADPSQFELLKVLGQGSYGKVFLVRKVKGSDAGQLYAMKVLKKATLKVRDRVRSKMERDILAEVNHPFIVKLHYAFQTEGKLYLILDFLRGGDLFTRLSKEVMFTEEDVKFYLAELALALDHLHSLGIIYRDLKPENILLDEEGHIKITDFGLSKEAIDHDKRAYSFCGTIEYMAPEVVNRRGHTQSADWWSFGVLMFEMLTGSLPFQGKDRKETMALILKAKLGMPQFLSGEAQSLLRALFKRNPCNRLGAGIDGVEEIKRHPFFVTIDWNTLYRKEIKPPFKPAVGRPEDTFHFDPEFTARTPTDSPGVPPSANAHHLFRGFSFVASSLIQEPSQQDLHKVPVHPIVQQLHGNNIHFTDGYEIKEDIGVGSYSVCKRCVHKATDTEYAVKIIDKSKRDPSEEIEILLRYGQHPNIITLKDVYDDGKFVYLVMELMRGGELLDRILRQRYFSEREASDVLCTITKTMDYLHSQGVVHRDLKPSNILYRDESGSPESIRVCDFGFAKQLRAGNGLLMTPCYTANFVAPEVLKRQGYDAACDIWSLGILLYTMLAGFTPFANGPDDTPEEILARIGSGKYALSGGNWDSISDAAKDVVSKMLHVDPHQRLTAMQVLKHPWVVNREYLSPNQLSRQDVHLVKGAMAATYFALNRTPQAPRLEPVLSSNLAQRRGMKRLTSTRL

[29] = target: Serine/threonine-protein kinase PknB (Mycobacterium tuberculosis) (UniProt P9WI81); conditions: Compound concentration 1000.0 nM
[30] = target: Insulin receptor-related protein (Homo sapiens) (UniProt P14616); conditions: Compound concentration 1000.0 nM
[31] = target: Phosphorylase b kinase regulatory subunit alpha, liver isoform (Homo sapiens) (UniProt P46019); conditions: Compound concentration 1000.0 nM
[32] = target: Ribosomal protein S6 kinase alpha-6 (Homo sapiens) (UniProt Q9UK32); conditions: Compound concentration 1000.0 nM
[33] = test system: Epidermal growth factor receptor (Homo sapiens), P00533 [UNDEFINED MUTATION]; conditions: Compound concentration 1000.0 nM
Chain of Epidermal growth factor receptor (Homo sapiens), P00533 [UNDEFINED MUTATION] (P00533 whole entry, looked up, change not shown): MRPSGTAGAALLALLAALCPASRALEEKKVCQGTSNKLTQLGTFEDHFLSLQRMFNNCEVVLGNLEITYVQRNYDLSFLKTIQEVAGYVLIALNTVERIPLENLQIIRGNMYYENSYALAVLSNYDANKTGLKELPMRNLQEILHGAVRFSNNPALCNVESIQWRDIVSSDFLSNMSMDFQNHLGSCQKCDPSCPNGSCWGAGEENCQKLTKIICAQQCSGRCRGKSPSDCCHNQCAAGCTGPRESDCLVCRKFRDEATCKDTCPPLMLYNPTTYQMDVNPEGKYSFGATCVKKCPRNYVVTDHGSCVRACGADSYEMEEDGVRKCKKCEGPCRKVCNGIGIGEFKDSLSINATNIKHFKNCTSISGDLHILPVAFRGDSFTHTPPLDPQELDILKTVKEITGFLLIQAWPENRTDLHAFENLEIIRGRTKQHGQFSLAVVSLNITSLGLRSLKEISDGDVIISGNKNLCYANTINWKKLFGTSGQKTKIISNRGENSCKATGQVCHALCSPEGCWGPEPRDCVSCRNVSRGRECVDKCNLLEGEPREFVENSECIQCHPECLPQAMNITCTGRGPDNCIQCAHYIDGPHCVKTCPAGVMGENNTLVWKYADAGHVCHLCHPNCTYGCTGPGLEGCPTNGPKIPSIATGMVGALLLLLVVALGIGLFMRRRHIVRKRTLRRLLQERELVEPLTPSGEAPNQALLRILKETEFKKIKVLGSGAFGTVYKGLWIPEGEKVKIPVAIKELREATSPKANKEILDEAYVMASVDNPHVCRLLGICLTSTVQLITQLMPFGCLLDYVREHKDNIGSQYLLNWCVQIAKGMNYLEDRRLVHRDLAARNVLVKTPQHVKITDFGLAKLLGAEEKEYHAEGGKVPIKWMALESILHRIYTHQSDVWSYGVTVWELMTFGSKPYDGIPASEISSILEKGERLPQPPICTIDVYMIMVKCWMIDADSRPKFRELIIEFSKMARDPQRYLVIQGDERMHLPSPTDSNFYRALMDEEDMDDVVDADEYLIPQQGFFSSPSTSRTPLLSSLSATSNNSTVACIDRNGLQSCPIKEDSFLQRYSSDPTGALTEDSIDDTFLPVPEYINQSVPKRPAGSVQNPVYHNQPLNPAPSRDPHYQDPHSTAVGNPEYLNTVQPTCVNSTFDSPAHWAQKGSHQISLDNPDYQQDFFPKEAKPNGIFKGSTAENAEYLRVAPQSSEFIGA

[34] = target: Calcium/calmodulin-dependent protein kinase type 1 (Homo sapiens) (UniProt Q14012); conditions: Compound concentration 1000.0 nM
Chain of Calcium/calmodulin-dependent protein kinase type 1 (Homo sapiens) (Q14012 whole entry, looked up): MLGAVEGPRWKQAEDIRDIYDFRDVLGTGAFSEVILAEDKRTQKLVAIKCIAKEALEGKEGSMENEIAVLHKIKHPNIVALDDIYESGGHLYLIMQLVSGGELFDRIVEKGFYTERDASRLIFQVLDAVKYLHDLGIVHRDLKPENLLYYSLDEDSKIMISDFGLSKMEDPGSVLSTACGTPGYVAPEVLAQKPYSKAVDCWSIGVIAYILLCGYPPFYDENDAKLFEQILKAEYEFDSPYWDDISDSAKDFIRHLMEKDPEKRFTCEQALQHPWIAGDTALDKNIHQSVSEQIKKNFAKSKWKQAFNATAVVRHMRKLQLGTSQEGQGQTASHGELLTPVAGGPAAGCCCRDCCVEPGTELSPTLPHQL

[35] = target: Mitogen-activated protein kinase kinase kinase kinase 5 (Homo sapiens) (UniProt Q9Y4K4); conditions: Compound concentration 1000.0 nM
[36] = target: 3-phosphoinositide-dependent protein kinase 1 (Homo sapiens) (UniProt O15530); conditions: Compound concentration 1000.0 nM
[37] = target: Testis-specific serine/threonine-protein kinase 3 (Homo sapiens) (UniProt Q96PN8); conditions: Compound concentration 1000.0 nM
Chain of Testis-specific serine/threonine-protein kinase 3 (Homo sapiens) (Q96PN8 whole entry): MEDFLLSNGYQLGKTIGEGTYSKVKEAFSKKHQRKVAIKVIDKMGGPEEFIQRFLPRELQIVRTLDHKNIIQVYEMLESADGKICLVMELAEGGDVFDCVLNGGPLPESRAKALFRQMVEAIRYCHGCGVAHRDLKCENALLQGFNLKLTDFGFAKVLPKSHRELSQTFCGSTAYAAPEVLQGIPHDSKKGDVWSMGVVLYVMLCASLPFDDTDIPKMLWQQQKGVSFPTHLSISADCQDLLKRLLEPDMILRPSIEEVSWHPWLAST

CNCc1ccccc1-c1csc([C@H](C)Nc2nc(C)nc3cc(OC)c(OC)cc23)c1 [BAY-294]
active: inhibition [23] 98.9% | inhibition [26] 65.4%
1.47 µM: Ki [21]
inactive: residual activity [1] 100% | residual activity [2] 100% | residual activity [4] 80% | residual activity [5] 91% | residual activity [6] 100% | residual activity [7] 85% | residual activity [8] 96% | residual activity [9] 100% | residual activity [10] 100% | residual activity [11] 100% | residual activity [12] 100% | residual activity [13] 100% | residual activity [14] 92% | residual activity [15] 91% | residual activity [16] 100% | residual activity [17] 100% | residual activity [18] 100% | residual activity [19] 100% | residual activity [20] 100% | residual activity [24] 100% | residual activity [25] 74% | residual activity [27] 87% | residual activity [28] 100% | residual activity [29] 90% | residual activity [30] 93% | residual activity [31] 100% | residual activity [32] 100% | residual activity [33] 89% | residual activity [34] 100% | residual activity [35] 100% | residual activity [36] 100% | residual activity [37] 100%
0.437 µM: Ki ([3]; read-out: pKi (converted))
0.0211 µM: Ki (Histamine H2 receptor; read-out: Ki)
0.454 µM: Ki ([3]; read-out: Ki)
0.0923 µM: Ki ([22]; read-out: pKi (converted))
0.0935 µM: Ki ([22]; read-out: Ki)

CNCc1ccccc1-c1csc([C@@H](C)Nc2nc(C)nc3cc(OC)c(OC)cc23)c1 [BAY-293]
0.512 µM: Ki [21]
inactive: residual activity [1] 98% | residual activity [2] 100% | residual activity [4] 78% | residual activity [5] 91% | residual activity [6] 79% | residual activity [7] 86% | residual activity [8] 76% | residual activity [9] 100% | residual activity [10] 89% | residual activity [11] 96% | residual activity [12] 96% | residual activity [13] 99% | residual activity [14] 92% | residual activity [15] 88% | residual activity [16] 99% | residual activity [17] 100% | residual activity [18] 97% | residual activity [19] 100% | residual activity [20] 100% | residual activity [24] 75% | residual activity [25] 53% | residual activity [27] 76% | residual activity [28] 100% | residual activity [29] 76% | residual activity [30] 95% | residual activity [31] 100% | residual activity [32] 85% | residual activity [33] 100% | residual activity [34] 100% | residual activity [35] 100% | residual activity [36] 92% | residual activity [37] 100%
0.17 µM: Ki ([22]; read-out: pKi (converted))
0.428 µM: Ki ([3]; read-out: Ki)
0.14 µM: Ki (Histamine H2 receptor; read-out: Ki) | Ki (Histamine H2 receptor; read-out: pKi (converted))
0.181 µM: Ki ([22]; read-out: Ki)
active: inhibition [23] 98.1% | inhibition [26] 74.2%
